According to US9416128B2, “Fused heterocyclic compounds as ion channel modulators” (Gilead Sciences, Inc., priority 2013, dated 2016):

Tests used:
hNaV1.1 (SCN1A) = hNaV1.1 (SCN1A) (Homo sapiens, UniProt P35498); experiment: Use-dependent inhibition of the CNS NaV1.1 sodium channel; format: cell-based; settings: % inhibition, 25 Hz; for inhibition at 1 µM: use-dependent block at 1 uM, read-out: Nav1.1 UDB 25 Hz 1 uM; for inhibition at 10 µM: use-dependent block at 10 uM, read-out: Nav1.1 UDB 25 Hz 10 uM
Summary of the method: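 Whole-cell automated patch clamp on HEK-293 cells stably expressing hNaV1.1, 23-25° C., CsF internal solution. Peak current at pulse 20 of a 25 Hz train (0 mV, 20 ms) from −120 mV, normalized to pulse 1; percentage inhibition versus compound-free condition.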

[1] = target: wild-type human cardiac sodium channel, hNaV 1.5 (Late INa) (Homo sapiens, UniProt Q14524); experiment: Late INa screening assay (whole cell patch clamp, QPatch, Tefluthrin-induced late current); format: cell-based; settings: HEK293 hNaV1.5, 10 μM Tefluthrin; for inhibition at 1 µM: HEK293, % inhibition (percent block of late INa) at 1 uM, read-out: Nav1.5 Late INa 1 uM
Summary of the method: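 HEK293 cells stably expressing hNaV1.5 without beta subunits, whole-cell patch clamp at 23-25° C; late current induced by 10 μM Tefluthrin, measured 240-265 ms into 250 ms steps to −20 mV from −120 mV at 0.1 Hz. Compounds typically 0.3 or 1 μM, three additions over 5 min; percent block normalized to 0Na baseline with rundown correction.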

wild-type human cardiac sodium channel, hNaV 1.5 (Late INa), sequence (Q14524 whole entry): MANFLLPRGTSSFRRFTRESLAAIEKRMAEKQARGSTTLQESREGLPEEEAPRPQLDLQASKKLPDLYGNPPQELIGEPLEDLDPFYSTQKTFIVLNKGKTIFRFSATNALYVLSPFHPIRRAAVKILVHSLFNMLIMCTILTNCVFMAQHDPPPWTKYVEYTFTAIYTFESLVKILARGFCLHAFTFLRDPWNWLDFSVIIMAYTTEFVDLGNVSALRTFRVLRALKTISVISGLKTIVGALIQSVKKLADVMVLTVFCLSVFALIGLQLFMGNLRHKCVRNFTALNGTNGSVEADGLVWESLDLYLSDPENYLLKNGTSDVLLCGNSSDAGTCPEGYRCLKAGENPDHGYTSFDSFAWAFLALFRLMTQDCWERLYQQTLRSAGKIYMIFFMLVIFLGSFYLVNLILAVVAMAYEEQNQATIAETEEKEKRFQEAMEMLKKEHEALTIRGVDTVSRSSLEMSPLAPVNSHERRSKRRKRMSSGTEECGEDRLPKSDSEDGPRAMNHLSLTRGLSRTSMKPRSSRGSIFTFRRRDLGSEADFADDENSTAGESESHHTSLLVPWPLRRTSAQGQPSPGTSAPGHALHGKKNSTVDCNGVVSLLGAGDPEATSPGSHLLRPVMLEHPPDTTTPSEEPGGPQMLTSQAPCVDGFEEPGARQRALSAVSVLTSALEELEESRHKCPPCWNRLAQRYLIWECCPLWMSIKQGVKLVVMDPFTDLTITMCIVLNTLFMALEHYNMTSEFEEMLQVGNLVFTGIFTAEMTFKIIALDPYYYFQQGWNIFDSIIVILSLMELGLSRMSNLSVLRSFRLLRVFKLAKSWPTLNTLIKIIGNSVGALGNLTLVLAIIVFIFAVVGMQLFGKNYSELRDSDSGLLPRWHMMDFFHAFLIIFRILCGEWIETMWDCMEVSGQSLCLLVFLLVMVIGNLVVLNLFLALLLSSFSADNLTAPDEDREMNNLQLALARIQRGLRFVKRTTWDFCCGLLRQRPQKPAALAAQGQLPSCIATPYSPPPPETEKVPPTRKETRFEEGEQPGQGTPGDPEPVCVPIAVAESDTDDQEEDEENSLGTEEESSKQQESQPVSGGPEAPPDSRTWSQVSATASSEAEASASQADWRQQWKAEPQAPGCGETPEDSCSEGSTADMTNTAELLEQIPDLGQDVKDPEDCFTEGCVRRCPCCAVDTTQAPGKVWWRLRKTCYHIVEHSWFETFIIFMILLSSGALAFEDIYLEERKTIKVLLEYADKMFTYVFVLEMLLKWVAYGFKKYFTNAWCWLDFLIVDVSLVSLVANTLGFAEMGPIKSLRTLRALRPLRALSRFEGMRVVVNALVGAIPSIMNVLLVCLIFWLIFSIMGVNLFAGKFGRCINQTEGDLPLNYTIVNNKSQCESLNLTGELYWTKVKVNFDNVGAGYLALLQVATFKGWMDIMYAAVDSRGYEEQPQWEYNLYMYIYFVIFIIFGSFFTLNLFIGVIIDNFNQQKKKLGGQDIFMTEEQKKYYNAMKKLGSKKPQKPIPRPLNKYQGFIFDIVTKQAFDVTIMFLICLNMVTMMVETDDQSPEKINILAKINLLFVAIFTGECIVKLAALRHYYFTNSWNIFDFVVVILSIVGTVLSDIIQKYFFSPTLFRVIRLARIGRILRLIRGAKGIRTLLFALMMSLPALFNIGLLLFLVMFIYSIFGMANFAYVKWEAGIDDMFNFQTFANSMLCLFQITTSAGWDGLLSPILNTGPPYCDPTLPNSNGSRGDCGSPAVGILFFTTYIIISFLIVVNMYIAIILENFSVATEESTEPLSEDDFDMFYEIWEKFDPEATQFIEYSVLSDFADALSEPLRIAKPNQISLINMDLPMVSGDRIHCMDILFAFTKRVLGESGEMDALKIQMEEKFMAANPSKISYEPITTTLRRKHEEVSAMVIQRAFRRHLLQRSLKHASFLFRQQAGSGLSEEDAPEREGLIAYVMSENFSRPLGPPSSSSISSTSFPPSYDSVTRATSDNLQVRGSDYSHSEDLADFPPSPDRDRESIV

| SMILES | inhibition at 1 µM (hNaV1.1 (SCN1A)) | inhibition at 10 µM (hNaV1.1 (SCN1A)) | inhibition at 1 µM [1] | Nav1.5 Late INa 1 uM ([1]; % inhibition (percent block of late INa) at 1 uM) |
| --- | --- | --- | --- | --- |
| O=C1Oc2ccc(-c3ccc(OC(F)(F)F)cc3F)cc2CN1Cc1ccccn1 [Example 21, 6-(2-fluoro-4-(trifluoromethoxy)phenyl)-3-(pyridin-2-ylmethyl)-3,4-dihydro-2H-benzo[e][1,3]oxazin-2-one] | < 5% | 50.8% | 44.7% | – |
| CCOc1cc(C(F)(F)F)ccc1-c1ccc2c(c1)CN(Cc1ncccn1)C(=O)O2 [Example 35, 6-(2-ethoxy-4-(trifluoromethyl)phenyl)-3-(pyrimidin-2-ylmethyl)-3,4-dihydro-2H-benzo[e][1,3]oxazin-2-one] | 37.6% | 80.4% | 49.4% | – |
| COc1cc(C(F)(F)F)ccc1-c1ccc2c(c1)CN(Cc1cccc(C)n1)C(=O)O2 [Example 44, 6-(2-methoxy-4-(trifluoromethyl)phenyl)-3-((6-methylpyridin-2-yl)methyl)-3,4-dihydro-2H-benzo[e][1,3]oxazin-2-one] | 25% | 84.5% | 44.8% | – |
| Cc1cc(C(F)(F)F)ccc1-c1ccc2c(c1)CN(Cc1ncccn1)C(=O)O2 [Example 37, 6-(2-methyl-4-(trifluoromethyl)phenyl)-3-(pyrimidin-2-ylmethyl)-3,4-dihydro-2H-benzo[e][1,3]oxazin-2-one] | 7.3% | 67.7% | 41.1% | – |
| COc1cc(OC(F)(F)F)ccc1-c1ccc2c(c1)CN(Cc1cccc(C)n1)C(=O)O2 [Example 46, 6-(2-methoxy-4-(trifluoromethoxy)phenyl)-3-((6-methylpyridin-2-yl)methyl)-3,4-dihydro-2H-benzo[e][1,3]oxazin-2-one] | 19% | 78.6% | 51.3% | – |
| COc1cc(C(F)(F)F)ccc1-c1ccc2c(c1)CN(Cc1ncccn1)C(=O)O2 [Example 34, 6-(2-methoxy-4-(trifluoromethyl)phenyl)-3-(pyrimidin-2-ylmethyl)-3,4-dihydro-2H-benzo[e][1,3]oxazin-2-one] | 26.9% | 76.1% | 44.6% | – |
| CCCOc1cc(OC(F)(F)F)ccc1-c1ccc2c(c1)CN(Cc1ncccn1)C(=O)O2 [Example 28, 6-(2-propoxy-4-(trifluoromethoxy)phenyl)-3-(pyrimidin-2-ylmethyl)-3,4-dihydro-2H-benzo[e][1,3]oxazin-2-one] | 25.2% | 67.4% | 45.4% | – |
| CC1c2cc(-c3cccc(OC(F)(F)F)c3)ccc2OC(=O)N1Cc1ncccn1 (stereo not drawn) [Example 50, 4-methyl-3-(pyrimidin-2-ylmethyl)-6-(3-(trifluoromethoxy)phenyl)-3,4-dihydro-2H-benzo[e][1,3]oxazin-2-one] | 10.1% | 71.2% | 34.9% | – |
| CCCOc1cc(C(F)(F)F)ccc1-c1ccc2c(c1)CN(Cc1ncccn1)C(=O)O2 [Example 27, 6-(2-propoxy-4-(trifluoromethyl)phenyl)-3-(pyrimidin-2-ylmethyl)-3,4-dihydro-2H-benzo[e][1,3]oxazin-2-one] | 28.4% | 77.5% | 60.1% | – |
| COc1cc(OC(F)(F)F)ccc1-c1ccc2c(c1)CN(Cc1ncccn1)C(=O)O2 [Example 9, 6-(2-methoxy-4-(trifluoromethoxy)phenyl)-3-(pyrimidin-2-ylmethyl)-3,4-dihydro-2H-benzo[e][1,3]oxazin-2-one] | < 5% | 34.4% | – | 45.0% |
| CC(C)Oc1cc(C(F)(F)F)ccc1-c1ccc2c(c1)CN(Cc1ncccn1)C(=O)O2 [Example 25, 6-(2-isopropoxy-4-(trifluoromethyl)phenyl)-3-(pyrimidin-2-ylmethyl)-3,4-dihydro-2H-benzo[e][1,3]oxazin-2-one] | 31.7% | 75.3% | 54% | – |
| O=C1Oc2ccc(-c3ccc(C(F)(F)F)cc3F)cc2CN1Cc1ncccn1 [Example 36, 6-(2-fluoro-4-(trifluoromethyl)phenyl)-3-(pyrimidin-2-ylmethyl)-3,4-dihydro-2H-benzo[e][1,3]oxazin-2-one] | 22.8% | 68.7% | 43.6% | – |
| O=C1Oc2ccc(-c3ccc(OC(F)(F)F)cc3F)cc2CN1Cc1ncccn1 [Example 7, 6-(2-fluoro-4-(trifluoromethoxy)phenyl)-3-(pyrimidin-2-ylmethyl)-3,4-dihydro-2H-benzo[e][1,3]oxazin-2-one] | 5.7% | 42.4% | 42.3% | – |
| O=C1Oc2ccc(-c3ccc4c(c3)OC(F)(F)O4)cc2CN1Cc1ncccn1 [Example 26, 6-(2,2-difluorobenzo[d][1,3]dioxol-5-yl)-3-(pyrimidin-2-ylmethyl)-3,4-dihydro-2H-benzo[e][1,3]oxazin-2-one] | 14.8% | 66.1% | 35.2% | – |
| COc1cc(OC(F)(F)F)ccc1-c1ccc2c(c1)CN(Cc1nccc(C)n1)C(=O)O2 [Example 31, 6-(2-methoxy-4-(trifluoromethoxy)phenyl)-3-((4-methylpyrimidin-2-yl)methyl)-3,4-dihydro-2H-benzo[e][1,3]oxazin-2-one] | 6% | 53.3% | 34.4% | – |
| Cc1csc(CN2Cc3cc(-c4ccc(OC(F)(F)F)cc4)ccc3OC2=O)n1 [Example 52, 3-((4-methylthiazol-2-yl)methyl)-6-(4-(trifluoromethoxy)phenyl)-3,4-dihydro-2H-benzo[e][1,3]oxazin-2-one] | 32.9% | 57.6% | 58% | – |
| Cc1cccc(CN2Cc3cc(-c4ccc(C(F)(F)F)cc4F)ccc3OC2=O)n1 [Example 45, 6-(2-fluoro-4-(trifluoromethyl)phenyl)-3-((6-methylpyridin-2-yl)methyl)-3,4-dihydro-2H-benzo[e][1,3]oxazin-2-one] | 19.9% | 72.8% | 53.6% | – |
| Cc1ccnc(CN2Cc3cc(-c4ccc(OC(F)(F)F)cc4)ccc3OC2=O)n1 [Example 29, 3-((4-methylpyrimidin-2-yl)methyl)-6-(4-(trifluoromethoxy)phenyl)-3,4-dihydro-2H-benzo[e][1,3]oxazin-2-one] | 44.7% | 86.8% | 61.6% | – |
| O=C1Oc2ccc(-c3ccc(C(F)(F)F)cc3)cc2CN1Cc1ccncc1 [Example 2, 3-(pyridin-4-ylmethyl)-6-(4-(trifluoromethyl)phenyl)-3,4-dihydro-2H-benzo[e][1,3]oxazin-2-one] | 9.7% | 22.6% | 41.5% | – |
| Cc1csc(CN2Cc3cc(-c4ccc(Cl)c(Cl)c4)ccc3OC2=O)n1 [Example 56, 6-(3,4-dichlorophenyl)-3-((4-methylthiazol-2-yl)methyl)-3,4-dihydro-2H-benzo[e][1,3]oxazin-2-one] | < 5% | 10.7% | 39% | – |
| O=C1Oc2ccc(-c3ccc(C(F)(F)F)cc3)cc2CN1CCc1ncccn1 [Example 17, 3-(2-(pyrimidin-2-yl)ethyl)-6-(4-(trifluoromethyl)phenyl)-3,4-dihydro-2H-benzo[e][1,3]oxazin-2-one] | 34.8% | 60.9% | 45% | – |
| Cc1cnc(CN2Cc3cc(-c4ccc(OC(F)(F)F)cc4F)ccc3OC2=O)nc1 [Example 14, 6-(2-fluoro-4-(trifluoromethoxy)phenyl)-3-((5-methylpyrimidin-2-yl)methyl)-3,4-dihydro-2H-benzo[e][1,3]oxazin-2-one] | < 5% | 43.8% | 39.3% | – |
